Data published in US20080268013A1, “Polyethylene Oxide Polymers Including Anti-Inflammatory Glycodendrons” (EMORY UNIVERSITY, priority 2005, published 2008).

What was measured:
[1] = system: neutrophil and macrophage recruitment; test: Thioglycollate induced murine model of peritoneal inflammation; assay type: in vivo, mouse; settings: C57BL mice
Experimental: Acute inflammation was induced in a mouse model by thioglycollate injection into the peritoneal cavity.
Thioglycollate induced murine model of peritoneal inflammation. Mice (C57BL, male, 6-8 weeks old) were injected intraperitoneally with 2 mL of 3% thioglycollate broth. Five minutes later, animals received intravenous injections of 0.2 mL sterile pyrogen-free saline (S) with and without heparin (H) or analogs (3c) (0.5 mg/mouse with 0.2 ml saline). Mice were sacrificed after 3 hours and peritoneal cells harvested by lavage with 8 mL of ice-cold phosphate buffered saline (PBS) containing 3 mM EDTA. Peritoneal cells were counted and cells stained for 30 minutes at 4° C. with FITC-conjugated rat anti-mouse Gr-1 mAb diluted in PBS containing 2.5% FBS. After washing three times with PBS, FACScan analysis was performed as described by Wang et al. (2002) and was used to sort, count and analyze the percentage of neutrophils and macrophages which were converted to the cell number using the formula N/M=Total cell number X % of NIM, respectively (N:Neutrophil; M: Macrophages). The cells were gated (FACS) expressing a high level of Gr-1 antigen (N) and Mac-1 (M). (See additional ref: Lagasse; E., Weissman; I. J. Immunological Meth. 1996, 197, 139-150). Statistical differences among groups were analyzed by ANOVA method using StatView software.

E-selectin = test: U937 cell adhesion to immobilized E-selectin; assay type: cell-based; settings: immobilized E-selectin chimera
Experimental: U937 cell binding to immobilized E-, L- or P-selectin. […] After blocking the plate with 10% BSA in PBS, P-selectin (0.05 μg/well), L-selectin (4 μg/well) or E-selectin (1 μg/well) chimeras were added. After 1 hr, wells were washed with blocking solution. U937 cells were grown in RPMI-1640 medium (containing 10% fetal bovine serum (FBS), 100 U/ml penicillin and 100 μg/ml streptomycin in an atmosphere of 5% CO2 in air and 100% relative humidity. The cells were fluorescently labeled with 10 μM calcein AM in RPMI 1640 medium containing 2.5% FBS for 30 min at 37° C. The cells were collected by low speed centrifugation, washed three times with RPMI 1640 medium, and resuspended at a density of 2×10^6 cells/mL in medium without FBS. Heparin and test compounds, or 10 mM sodium EDTA (negative control) were added at 50 μL/well, and then the fluorescently labeled U937 cell suspension (50 μL/well) was added and incubated for 30 min at room temperature. Non-adherent cells were removed by rinsing the plates three times with PBS, and the number of adherent cells was quantified by measuring the fluorescence intensity at 485 nm after […] 2% Triton X-100 in 0.1 M Tris-HCl, pH 9.5. Raw data were converted to relative fluorescence intensity (RFI) for comparative purposes.

## heparin
[1]
  in vivo activity on inflammatory cell recruitment (in words): inhibited inflammatory cell recruitment to a similar degree
E-selectin
  inhibitory activity toward E-selectin (U937 cell adhesion): Neither heparin nor 3c exhibited substantial inhibitory activity
